# According to patent US11154519B2, “Inhibitors and their uses” (MEDICAL RESEARCH COUNCIL, priority 2015, dated 2021):
# Experiments:
# R15A or R15B = assay: Selective binding towards R15A or R15B (based on SPR); parameters: species or system human
# Protocol: In one embodiment, the compounds of formula IB inhibit PPP1R15A and PPP1R15B. Inhibition of PPP1R15A and PPP1R15B can be determined from binding analysis. For example, binding can be analysed using SPR (surface plasmon resonance) to obtain KD values. A PPP1R15A and PPP1R15B inhibitor may be defined as a compound where the difference in KD values between R15A and R15B is no more than about 3 fold.
# Small molecules were stored as 50 mM stock solutions in 100% DMSO. Prior to determining binding constants, serial dilutions of either 12 or 8 concentrations of the compounds were prepared in the running buffer in a 96-well plate. Prior to each compound dilution series the regulatory subunit, MBP-R15A^325-636-His or MBP-R15B^340-698-His, was diluted to 10 μM in the running buffer and captured on the bio-PP1c surface at a flow rate of 30 μl/min for 1 minute to form the holophosphatase complex on the sensor chip surface. This was followed by 1 minute stabilization period, to wash off any unspecific binding. Then, without regenerating the surface, the compound dilution series was injected onto the surface of the chip at a flow rate of 30 μl/min for 1 minute, followed by 2 minutes dissociation time. After each dilution series the surface was regenerated using 3 M NaCl for 90 seconds. After regeneration, SPR responses generally returned to base levels and the bio-PP1c surface was ready for the next compound dilution series. In order to be able to correct for small variations in DMSO concentration between samples, eight solvent samples ranging from 0.06 to 8% DMSO were injected every 50th cycle. The flow cell temperature was 10° C.
# Sensorgrams were analyzed using the Biacore T200 evaluation software and the binding constants determined based on a steady-state model. Kinetic experiments are carried out using different concentrations of the compound and their respective equilibrium binding levels determined.
# protein synthesis = assay: Assessment of translation rates (35S-methionine labelling); format: cell-based; conditions: for Effect on translation ⇒ Inhibits: target(s) concluded to be inhibited; for Effect on translation: 35S-methionine labelling of cells
# Protocol: Cells (90,000 cells/ml) were plated in 12-well plates, treated as indicated, labelled with 100 μCi/mI 35S-methionine (Hartmann Analytic) for 10 minutes at 37° C., washed with ice-cold PBS and lysed in 120 μl Laemmli Buffer. Lysates were boiled at 95° C. for 5 minutes, sonicated and resolved on 4-12% Bolt Bis-Tris Plus Gels (Thermo Fisher Scientific). Gels were then stained with InstantBlue (Expedeon) and analyzed by phosphorimaging and quantified using ImageJ.
# By monitoring translation rates as described above, the activities of R15A, R15B and R15A/B inhibitors can be defined as follows (also shown in FIG. 12). An R15A inhibitor has no effect on translation in unstressed cells but prolongs translation attenuation following stress. A selective R15B inhibitor transiently attenuate protein synthesis because R15A compensates for the inhibition of R15B.
# PP1 = molecular target: T1, PP1 (Homo sapiens, UniProt P36873); assay: SPR binding to PP1 alone; conditions: SPR steady-state, bio-PP1c surface
# T1 construct: made in house; host or cells: Sf9 insect cells (baculovirus, pDW464)
# T1 sequence (P36873 whole entry): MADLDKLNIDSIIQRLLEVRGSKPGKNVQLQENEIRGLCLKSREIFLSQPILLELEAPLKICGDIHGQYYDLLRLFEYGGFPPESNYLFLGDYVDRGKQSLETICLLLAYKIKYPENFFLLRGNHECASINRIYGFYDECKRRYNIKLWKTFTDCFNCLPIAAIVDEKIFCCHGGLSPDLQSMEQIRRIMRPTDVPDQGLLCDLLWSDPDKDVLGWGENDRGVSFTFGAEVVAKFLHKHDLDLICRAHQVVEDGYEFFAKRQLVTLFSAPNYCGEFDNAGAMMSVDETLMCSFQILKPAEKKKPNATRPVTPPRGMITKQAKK
SMILES,Selective binding towards R15A or R15B (based on SPR) (R15A or R15B),Effect on translation ⇒ Inhibits (protein synthesis),Effect on translation (protein synthesis),Kd (PP1),"protein synthesis rates (protein synthesis; unstressed cells, 10 μM, FIG. 12)"
"[H]/N=C(\N)NN=Cc1cc(F)ccc1Cl [Compound 20, (E)-2-(2-chloro-5-fluorobenzylidene)hydrazine-1-carboximidamide]",R15AB (A PPP1R15A and PPP1R15B inhibitor may be defined as a compound where the difference in KD values between R15A and R15B is no more than about 3 fold),R15AB,–,–,–
"[H]/N=C(\N)NN=Cc1ccc(Cl)nc1Cl [Compound 22, (E)-2-((2,6-dichloropyridin-3-yl)methylene)hydrazine-1-carboximidamide]",R15AB (A PPP1R15A and PPP1R15B inhibitor may be defined as a compound where the difference in KD values between R15A and R15B is no more than about 3 fold),R15AB,–,–,–
"[H]/N=C(\N)NN=Cc1ccc(Cl)c(Cl)c1Cl [Compound 6, (E)-2-(2,3,4-trichlorobenzylidene)hydrazine-1-carboximidamide]",R15AB (A PPP1R15A and PPP1R15B inhibitor may be defined as a compound where the difference in KD values between R15A and R15B is no more than about 3 fold),–,Persistent,–,–
"[H]/N=C(\N)NN=Cc1ccc(Cl)cc1 [Compound 1, (E)-2-((4-chlorophenyl)methylene)hydrazine-1-carboximidamide]",R15AB (A PPP1R15A and PPP1R15B inhibitor may be defined as a compound where the difference in KD values between R15A and R15B is no more than about 3 fold),–,–,6.28 µM,–
"N=C(N)N/N=C/c1cc(Cl)c(Cl)cc1F [Compound 18, (E)-2-(4,5-dichloro-2-fluorobenzylidene)hydrazine-1-carboximidamide]",R15AB (A PPP1R15A and PPP1R15B inhibitor may be defined as a compound where the difference in KD values between R15A and R15B is no more than about 3 fold),–,–,10.2 ± 0.14 µM,–
"[H]/N=C(\N)NN=Cc1ccc(F)c(Cl)c1Cl [Compound 14, (E)-2-(2,3-dichloro-4-fluorobenzylidene)hydrazine-1-carboximidamide]",R15AB (A PPP1R15A and PPP1R15B inhibitor may be defined as a compound where the difference in KD values between R15A and R15B is no more than about 3 fold),–,Persistent,–,–
"[H]/N=C(\N)NN=Cc1cccc(F)c1 [Compound 23, (E)-2-(3-fluorobenzylidene)hydrazine-1-carboximidamide]",R15AB (A PPP1R15A and PPP1R15B inhibitor may be defined as a compound where the difference in KD values between R15A and R15B is no more than about 3 fold),R15AB,–,–,–
"[H]/N=C(\N)NN=Cc1ccc(Cl)c(F)c1 [Compound 8, (E)-2-(4-chloro-3-fluorobenzylidene)hydrazine-1-carboximidamide]",R15AB (A PPP1R15A and PPP1R15B inhibitor may be defined as a compound where the difference in KD values between R15A and R15B is no more than about 3 fold),R15AB,–,10.6 ± 3.82 µM,–
"[H]/N=C(\N)NN=Cc1ccccc1F [Compound 17, (E)-2-(2-fluorobenzylidene)hydrazine-1-carboximidamide]",R15AB (A PPP1R15A and PPP1R15B inhibitor may be defined as a compound where the difference in KD values between R15A and R15B is no more than about 3 fold),–,(No),12 ± 0.8 µM,–
"[H]/N=C(\N)NN=Cc1cccc(Cl)c1Br [Compound 9, (E)-2-(2-bromo-3-chlorobenzylidene)hydrazine-1-carboximidamide]",R15A (A “selective inhibitor” may be defined as a compound where the difference in KD values between R15A and R15B is greater than 3 fold),Off,–,14.7 ± 1.4 µM,–
"N=C(N)N/N=C/c1cc(Cl)c(Cl)c(Cl)c1 [Compound 3, (E)-2-(3,4,5-trichlorobenzylidene)hydrazine-1-carboximidamide]",R15AB (A PPP1R15A and PPP1R15B inhibitor may be defined as a compound where the difference in KD values between R15A and R15B is no more than about 3 fold),–,Persistent,10.3 µM,–
"[H]/N=C(\N)NN=Cc1cccc(Cl)c1 [Compound 24, (E)-2-(3-chlorobenzylidene)hydrazine-1-carboximidamide]",R15AB (A PPP1R15A and PPP1R15B inhibitor may be defined as a compound where the difference in KD values between R15A and R15B is no more than about 3 fold),R15AB,–,6.27 µM,–
"[H]/N=C(\N)NN=Cc1cc(Cl)ccc1Cl [Compound 26, (E)-2-(2,5-dichlorobenzylidene)hydrazine-1-carboximidamide]",R15AB (A PPP1R15A and PPP1R15B inhibitor may be defined as a compound where the difference in KD values between R15A and R15B is no more than about 3 fold),R15AB,–,–,–
"[H]/N=C(\N)NN=Cc1cc(Cl)cc(Cl)c1 [Compound 34, (E)-2-(3,5-dichlorobenzylidene)hydrazine-1-carboximidamide]",R15AB (A PPP1R15A and PPP1R15B inhibitor may be defined as a compound where the difference in KD values between R15A and R15B is no more than about 3 fold),R15AB,–,–,–
"[H]/N=C(\N)NN=Cc1ccc(F)c(Cl)c1 [Compound 15, (E)-2-(3-chloro-4-fluorobenzylidene)hydrazine-1-carboximidamide]",R15AB (A PPP1R15A and PPP1R15B inhibitor may be defined as a compound where the difference in KD values between R15A and R15B is no more than about 3 fold),–,–,6.14 ± 0.28 µM,–
"[H]/N=C(\N)NN=Cc1cccnc1Cl [Compound 21, (E)-2-((2-chloropyridin-3-yl)methylene)hydrazine-1-carboximidamide]",R15AB (A PPP1R15A and PPP1R15B inhibitor may be defined as a compound where the difference in KD values between R15A and R15B is no more than about 3 fold),–,Transient,–,–
"[H]/N=C(\N)NN=Cc1cc(Cl)cc(Cl)c1Cl [Compound 10, (E)-2-(2,3,5-trichlorobenzylidene)hydrazine-1-carboximidamide]",R15AB (A PPP1R15A and PPP1R15B inhibitor may be defined as a compound where the difference in KD values between R15A and R15B is no more than about 3 fold),–,Persistent,–,persistently inhibits protein synthesis
"[H]/N=C(\N)NN=Cc1ccc(Cl)c(Cl)c1 [Compound 11, (E)-2-(3,4-dichlorobenzylidene)hydrazine-1-carboximidamide]",R15AB (A PPP1R15A and PPP1R15B inhibitor may be defined as a compound where the difference in KD values between R15A and R15B is no more than about 3 fold),R15AB,–,–,–
"[H]/N=C(\N)NN=Cc1ccc(Cl)c(F)c1Cl [Compound 13, (E)-2-(2,4-dichloro-3-fluorobenzylidene)hydrazine-1-carboximidamide]",R15AB (A PPP1R15A and PPP1R15B inhibitor may be defined as a compound where the difference in KD values between R15A and R15B is no more than about 3 fold),R15AB,Persistent,–,–
"[H]/N=C(\N)NN=Cc1cc(Cl)c(F)c(Cl)c1 [Compound 5, (E)-2-(3,5-dichloro-4-fluorobenzylidene)hydrazine-1-carboximidamide]",R15AB (A PPP1R15A and PPP1R15B inhibitor may be defined as a compound where the difference in KD values between R15A and R15B is no more than about 3 fold),–,–,30.6 µM,–
"[H]/N=C(\N)NN=Cc1cc(F)cc(F)c1Cl [Compound 29, (E)-2-(2-chloro-3,5-difluorobenzylidene)hydrazine-1-carboximidamide]",R15AB (A PPP1R15A and PPP1R15B inhibitor may be defined as a compound where the difference in KD values between R15A and R15B is no more than about 3 fold),R15AB,–,–,–
